Reference: patent publication US20260116910A1, “POLYCYCLIC COMPOUNDS AND METHODS THEREOF” (HEPAITECH (BEIJING) BIOPHARMA TECHNOLOGY CO., LTD., priority 2021, published 2026)
Read-outs that look alike come from different tables or passages of the source.

Columns and labels:
human FXR (NR1H4) = biological target: T1, human FXR (NR1H4) (Homo sapiens, UniProt Q96RI1); assay: Human FXR (NR1H4) agonist assessment, FXRE-NanoLuc reporter in HEK293T cells; assay type: cell-based; details: for EC50: read-out: EC50
T1 sequence (Q96RI1 1-476 isoform Q96RI1-1): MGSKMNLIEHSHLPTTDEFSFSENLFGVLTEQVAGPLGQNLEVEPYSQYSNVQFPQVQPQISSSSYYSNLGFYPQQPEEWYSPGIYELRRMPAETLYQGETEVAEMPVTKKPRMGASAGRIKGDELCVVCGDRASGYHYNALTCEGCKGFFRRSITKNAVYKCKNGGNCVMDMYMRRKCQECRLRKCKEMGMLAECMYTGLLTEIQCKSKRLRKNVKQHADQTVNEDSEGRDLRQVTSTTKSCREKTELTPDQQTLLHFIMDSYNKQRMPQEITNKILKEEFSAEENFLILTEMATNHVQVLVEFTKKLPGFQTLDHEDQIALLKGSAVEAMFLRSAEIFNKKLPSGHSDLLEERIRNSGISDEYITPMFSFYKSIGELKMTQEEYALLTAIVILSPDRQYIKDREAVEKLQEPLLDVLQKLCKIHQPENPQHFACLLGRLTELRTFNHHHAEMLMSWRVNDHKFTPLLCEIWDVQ
Outline: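 HEK293T cells stably expressing human FXR with an FXRE-NanoLuc reporter were treated with compounds for 24 hr at 37 °C, with 0.01% DMSO as negative control. Medium was read for luminescence after 5 min with coelenterazine. EC50 was fitted by sigmoid to concentration-response data.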

MRGPRX4 = MRGPRX4 (Homo sapiens, UniProt Q96LA9); assay: MRGPRX4 activation, Fluo-8 Ca2+ FLIPR assay in HEK293T cells stably expressing MRGPRX4; assay type: cell-based; parameters: key to MRGPRX4 activation, Average / MRGPRX4 activation, Ave.: fluorescence change dF/F0; details: for EC50: MRGPRX4 activation, Ca2+ fluorescence, no activation in tested range reported as III, read-out: Activity (EC50 μM)
Chain of MRGPRX4 (Q96LA9 whole entry): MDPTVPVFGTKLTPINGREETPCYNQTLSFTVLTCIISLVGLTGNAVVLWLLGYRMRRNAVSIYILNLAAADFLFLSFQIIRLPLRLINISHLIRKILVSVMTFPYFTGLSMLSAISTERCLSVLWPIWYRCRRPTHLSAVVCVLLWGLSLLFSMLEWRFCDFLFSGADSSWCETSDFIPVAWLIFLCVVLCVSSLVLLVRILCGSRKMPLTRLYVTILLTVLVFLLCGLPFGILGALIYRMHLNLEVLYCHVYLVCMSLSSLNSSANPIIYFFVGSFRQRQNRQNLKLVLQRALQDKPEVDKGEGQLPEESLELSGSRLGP
Outline: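 Cells seeded overnight to >95% confluence, loaded 40-60 min at room temperature with 2 μM Fluo-8 AM, then kept in HHBS. Baseline read 30 s, compound added, signal followed 150 s more.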

[1] = FXR activation, HEK293T FXRE-NanoLuc reporter, 24 hr

Row | Compound | Efficacy (maximum measured induction of NanoLuc, normalized to CDCA set as 100%) (human FXR (NR1H4); [1]) | EC50 (human FXR (NR1H4); [1]) [µM] | MRGPRX4 activation, Average (MRGPRX4; E3-9, Conc. (Log[M]) −4.0) | MRGPRX4 activation, Average (MRGPRX4; E3-9, Conc. (Log[M]) −4.5) | MRGPRX4 activation, Average (MRGPRX4; E3-9, Conc. (Log[M]) −5.0) | MRGPRX4 activation, Average (MRGPRX4; E3-9, Conc. (Log[M]) −5.4) | MRGPRX4 activation, Average (MRGPRX4; E3-9, Conc. (Log[M]) −5.9) | MRGPRX4 activation, Average (MRGPRX4; E3-9, Conc. (Log[M]) −6.4) | MRGPRX4 activation, Average (MRGPRX4; E3-9, Conc. (Log[M]) −6.9) | MRGPRX4 activation, Average (MRGPRX4; E3-9, Conc. (Log[M]) −7.3) | MRGPRX4 activation, Average (MRGPRX4; E3-9, Conc. (Log[M]) −7.8) | MRGPRX4 activation, Average (MRGPRX4; E3-9, Conc. (Log[M]) −8.3) | EC50 (MRGPRX4) [µM] | also measured
1 | CC[C@H]1[C@@H](O)[C@@H]2[C@H](CC[C@]3(C)[C@@H]([C@H](C)CCNC(=O)C(=O)NS(=O)(=O)c4ccc(C(C)(C)CF)cc4)CC[C@@H]23)[C@@]2(C)CCCC[C@@H]12 [8-3] | C (100%<efficacy <=300%) | < 1 | 0.023 | 0.016 | 0.016 | 0.023 | 0.025 | 0.013 | 0.013 | 0.013 | 0.011 | 0.018 | > 100 | –
2 | CC[C@H]1[C@@H](O)[C@@H]2[C@H](CC[C@]3(C)[C@@H]([C@H](C)CCNC(=O)C(=O)NS(=O)(=O)c4cc(F)cc(F)c4)CC[C@@H]23)[C@@]2(C)CCCC[C@@H]12 [8-4] | B (300%<efficacy <=400%) | < 1 | – | – | – | – | – | – | – | – | – | – | > 100 | MRGPRX4 activation, Ave. (MRGPRX4; E3-7, Conc. (Log[M]) −4): −0.041; MRGPRX4 activation, Ave. (MRGPRX4; E3-7, Conc. (Log[M]) −4.5): −0.027; MRGPRX4 activation, Ave. (MRGPRX4; E3-7, Conc. (Log[M]) −5): −0.014; MRGPRX4 activation, Ave. (MRGPRX4; E3-7, Conc. (Log[M]) −5.5): −0.014; MRGPRX4 activation, Ave. (MRGPRX4; E3-7, Conc. (Log[M]) −6): 0.000; MRGPRX4 activation, Ave. (MRGPRX4; E3-7, Conc. (Log[M]) −7): 0.000
3 | CC[C@H]1[C@@H](O)[C@@H]2[C@H](CC[C@]3(C)[C@@H]([C@H](C)CCNC(=O)C(=O)NS(=O)(=O)c4cc(F)ccc4F)CC[C@@H]23)[C@@]2(C)CCCC[C@@H]12 [8-5] | C (100%<efficacy <=300%) | < 1 | 0.030 | 0.016 | 0.018 | 0.018 | 0.018 | 0.016 | 0.020 | 0.016 | 0.011 | 0.011 | > 100 | –
4 | CC[C@H]1[C@@H](O)[C@@H]2[C@H](CC[C@]3(C)[C@@H]([C@H](C)CCNC(=O)NS(=O)(=O)c4ccc(C(C)(C)CF)cc4)CC[C@@H]23)[C@@]2(C)CC[C@H](F)C[C@@H]12 [9-1] | B (300%<efficacy <=400%) | < 1 | 0.019 | 0.021 | 0.012 | 0.018 | 0.014 | 0.019 | 0.016 | 0.016 | 0.012 | 0.018 | > 100 | –
5 | CC[C@H]1[C@@H](O)[C@@H]2[C@H](CC[C@]3(C)[C@@H]([C@H](C)CCNC(=O)NS(=O)(=O)c4cc(F)ccc4F)CC[C@@H]23)[C@@]2(C)CC[C@H](F)C[C@@H]12 [9-2] | B (300%<efficacy <=400%) | < 1 | 0.035 | 0.001 | 0.002 | 0.019 | 0.018 | 0.018 | 0.014 | 0.019 | 0.016 | 0.019 | 50 to 100 | MRGPRX4 activation, fluorescence change (dF/F0), Average (MRGPRX4; Conc. (Log[M]) −4): 0.655; MRGPRX4 activation, fluorescence change (dF/F0), Average (MRGPRX4; Conc. (Log[M]) −4.5): 0.162; MRGPRX4 activation, fluorescence change (dF/F0), Average (MRGPRX4; Conc. (Log[M]) −5): 0.011; MRGPRX4 activation, fluorescence change (dF/F0), Average (MRGPRX4; Conc. (Log[M]) −5.5): −0.068; MRGPRX4 activation, fluorescence change (dF/F0), Average (MRGPRX4; Conc. (Log[M]) −6): −0.030; MRGPRX4 activation, fluorescence change (dF/F0), Average (MRGPRX4; Conc. (Log[M]) −7): −0.029; MRGPRX4 activation, fluorescence change (dF/F0), Average (MRGPRX4; Conc. (Log[M]) −8): −0.035; MRGPRX4 activation, fluorescence change (dF/F0), Average (MRGPRX4; Conc. (Log[M]) −9): −0.072
6 | CC[C@H]1[C@@H](O)[C@@H]2[C@H](CC[C@]3(C)[C@@H]([C@H](C)CCNC(=O)NS(=O)(=O)c4cc(F)cc(F)c4)CC[C@@H]23)[C@@]2(C)CC[C@H](F)C[C@@H]12 [9-3] | B (300%<efficacy <=400%) | < 1 | 0.006 | 0.004 | 0.018 | 0.019 | 0.019 | 0.016 | 0.014 | 0.018 | 0.016 | 0.016 | > 100 | –
7 | CC[C@H]1[C@@H](O)[C@@H]2[C@H](CC[C@]3(C)[C@@H]([C@H](C)CCNC(=O)NS(=O)(=O)c4cccs4)CC[C@@H]23)[C@@]2(C)CC[C@H](F)C[C@@H]12 [9-4] | C (100%<efficacy <=300%) | < 1 | −0.003 | 0.004 | 0.014 | 0.019 | 0.019 | 0.018 | 0.019 | 0.021 | 0.018 | 0.019 | > 100 | –
8 | CC[C@H]1[C@@H](O)[C@H]2[C@@H]3CC[C@](C)([C@H](C)CCNC(=O)NS(=O)(=O)C[C@]45CCC(CC4=O)C5(C)C)[C@H]3CC[C@@H]2[C@@]2(C)CC[C@H](F)C[C@@H]12 [9-5] | – | < 1 | 0.014 | 0.016 | 0.023 | 0.023 | 0.018 | 0.019 | 0.021 | 0.019 | 0.021 | 0.021 | > 100 | Efficacy (maximum measured induction of NanoLuc, normalized to CDCA set as 100%) (human FXR (NR1H4)): C (key: A: efficacy >400%; B: 300%<efficacy <=400%; C: 100%<efficacy <=300%; D: efficacy <=100%)
